Experimental data: PubChem BioAssay (NCI)
Several values for one entry are separate records, joined by “and”; a condition that tells them apart may be missing. Equal values may be shown once.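 Dose response: 5 concentrations. Exposure: 48 h. Format: 96-well plates. Endpoint: linear interpolation; highest concentration if not reached. GI50 is the concentration that inhibits growth by half. TGI is the concentration that stops growth completely.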 Where a SMILES comes first, the peptide text is derived from it. Bridges are numbered along the chain shown (N, C = ends). The star is where a group is joined. Cbz = O=C(OCc1ccccc1)*

Columns and labels:
Test in all cases: inhibition of tumour cell growth, NCI panel, 48 h
786-0 renal = tested on: 786-0 renal
CCRF-CEM leukemia = tested on: CCRF-CEM leukemia
HOP-62 NSCLC = tested on: HOP-62 NSCLC
HS 578T breast = tested on: HS 578T breast
HT29 colon = tested on: HT29 colon
K-562 leukemia = tested on: K-562 leukemia
MDA-MB-231 breast = tested on: MDA-MB-231 breast
NCI-H226 lung = tested on: NCI-H226 lung
NCI-H460 lung = tested on: NCI-H460 lung
NCI-H522 lung = tested on: NCI-H522 lung
PC-3 prostate = tested on: PC-3 prostate
SK-MEL-28 melanoma = tested on: SK-MEL-28 melanoma
SW-620 colon = tested on: SW-620 colon
U251 CNS = tested on: U251 CNS
UACC-257 melanoma = tested on: UACC-257 melanoma
BT-549 breast = tested on: BT-549 breast
UACC-62 melanoma = tested on: UACC-62 melanoma

| Structure (SMILES) | TGI (786-0 renal) | TGI (CCRF-CEM leukemia) | TGI (HOP-62 NSCLC) | TGI (HS 578T breast) | TGI (HT29 colon) | TGI (K-562 leukemia) | TGI (MDA-MB-231 breast) | TGI (NCI-H226 lung) | TGI (NCI-H460 lung) | TGI (NCI-H522 lung) | TGI (PC-3 prostate) | TGI (SK-MEL-28 melanoma) | TGI (SW-620 colon) | TGI (U251 CNS) | TGI (UACC-257 melanoma) | TGI (BT-549 breast) | TGI (UACC-62 melanoma) | GI50 (CCRF-CEM leukemia) | GI50 (U251 CNS) | GI50 (UACC-62 melanoma) |
| --- | --- | --- | --- | --- | --- | --- | --- | --- | --- | --- | --- | --- | --- | --- | --- | --- | --- | --- | --- | --- |
| CN1CCN(Cn2nc(COc3ccccc3Cl)n(/N=C/c3ccc(-c4ccc(Cl)cc4Cl)o3)c2=S)CC1 | 32.8 µM | > 100 µM | 45.7 µM | > 100 µM | 42.9 µM | 89.9 µM | 69.5 µM | > 100 µM | 51.6 µM | 56.1 µM | 53.6 µM | > 100 µM | 34.6 µM | 34.6 µM | > 100 µM | – | – | – | – | – |
| Cc1nnc2n1N=C(c1cc(F)c(Cl)cc1Cl)/C(=C/c1ccc(-c3ccc([N+](=O)[O-])cc3)o1)S2 | > 100 µM | > 100 µM | > 100 µM | > 100 µM | > 100 µM | > 100 µM | – | – | > 100 µM | > 100 µM | > 100 µM | > 100 µM | > 100 µM | > 100 µM | > 100 µM | > 100 µM | > 100 µM | – | – | – |
| CCN(CC)C(=O)CCn1ccc(=O)[nH]c1=O | > 100 µM | > 100 µM | > 100 µM | – | > 100 µM | > 100 µM | – | > 100 µM | > 100 µM | > 100 µM | – | > 100 µM | > 100 µM | > 100 µM | – | – | > 100 µM | – | – | – |
| C=C(Br)C(C)(Cl)CCC(Br)C(C)(C)Br (stereo not drawn) | > 100 µM | 59.6 µM | > 100 µM | – | > 100 µM | 80.9 µM | – | > 100 µM | > 100 µM | > 100 µM | – | – | > 100 µM | > 100 µM | > 100 µM | – | > 100 µM | – | – | – |
| O=C(c1ccc2ccccc2c1)C1(I)S(=O)(=O)OCCOS1(=O)=O | > 100 µM | > 100 µM | > 100 µM | – | > 100 µM | > 100 µM | > 100 µM | – | > 100 µM | – | > 100 µM | > 100 µM | – | > 100 µM | – | > 100 µM | – | – | – | – |
| CC(=O)c1ccc(Br)cc1NC1=CC(=O)c2ncccc2C1=O | 15.3 µM | 32.2 µM | 13.1 µM | 35.6 µM | 12.3 µM | 10.1 µM | 10.8 µM | 15.5 µM | – | 10.4 µM | 13.5 µM | 20.7 µM | – | 19.7 µM | 4.94 µM | – | 6.13 µM | – | – | – |
| COC(=O)c1cc2ccc(O)c(O)c2cn1 | 19.7 µM | > 100 µM | 36.2 µM | – | – | 8.16 µM | 25.2 µM | 36.8 µM | 37.4 µM | 37.9 µM | 56.4 µM | 35.6 µM | 32.4 µM | 31.2 µM | 29.6 µM | – | 6.16 µM and 30.9 µM | 4.62 µM | 16.9 µM | 14.2 µM |
| CC(C)[Si](OC12CCC(CC1O)CC2CO)(C(C)C)C(C)C (stereo not drawn) | 22.3 µM | 31.6 µM | 29.9 µM | – | 28.9 µM | > 100 µM | 45.6 µM | 33.6 µM | 25.2 µM | – | 24.1 µM | 40.8 µM | 52.4 µM | 28 µM | 26.6 µM | – | 28.9 µM | – | – | – |
| COc1cc(CN=c2nc(N(C)C)ss2)cc(OC)c1OC | > 5.44 µM | 1.56 µM | > 10 µM | > 10 µM | > 10 µM | 5.67 µM | > 10 µM | > 10 µM | > 10 µM | > 10 µM | > 10 µM | > 10 µM | > 10 µM | > 10 µM | > 10 µM | – | > 10 µM | – | – | – |
| CCC(C)N1CN(c2ccccc2)C2(CCN(CC3COc4ccccc4O3)CC2)C1=O (stereo not drawn) | 35.5 µM | 64.5 µM | 41.7 µM | – | 40.3 µM | 46.9 µM | > 100 µM | 52.3 µM | – | 68.6 µM | 87.3 µM | > 100 µM | 58.8 µM | 38.7 µM | 65.9 µM | 31.6 µM | 49.8 µM | – | – | – |
| O=C1c2ccccc2C(=O)N1/N=C1/SC(=Nc2ccccc2)C(=Nc2ccccc2)N1c1ccccc1 | > 41.7 µM | > 90.3 µM | > 100 µM | > 100 µM | > 100 µM | > 100 µM | – | > 100 µM | > 100 µM | > 100 µM | > 100 µM | > 69 µM | > 100 µM | > 100 µM | > 100 µM | > 100 µM | > 100 µM | – | – | – |
| N/N=c1/nc2n(c3ncccc13)C=CNN2 | > 100 µM | > 100 µM | > 100 µM | – | > 100 µM | > 100 µM | – | > 100 µM | > 100 µM | > 100 µM | – | > 100 µM | > 100 µM | > 100 µM | > 100 µM | – | > 100 µM | – | – | – |
| O=C(O)CN1CCSc2ccccc2CN(CC(=O)O)CCSc2ccccc2C1 | > 100 µM | > 100 µM | > 100 µM | – | > 100 µM | > 100 µM | – | – | > 100 µM | > 100 µM | – | > 100 µM | > 100 µM | > 100 µM | > 100 µM | – | > 100 µM | – | – | – |
| CNC(=O)C1CCCCNC(=O)CCC(NC(=O)OCc2ccccc2)C(=O)N1 (stereo not drawn) (Cbz-Glu-Lys-NHMe; lactam 1-2; configuration not given here) | > 100 µM | > 100 µM | > 100 µM | > 100 µM | > 100 µM | > 100 µM | > 100 µM | > 100 µM | > 100 µM | > 100 µM | > 100 µM | > 100 µM | > 100 µM | > 100 µM | > 100 µM | – | > 100 µM | – | – | – |
| N=C(N)SCc1ccc2c(c1)S(=O)(=O)c1ccccc1O2 | > 100 µM | > 100 µM | 42.4 µM | 78.7 µM | 33.8 µM | > 100 µM | > 100 µM | 48.9 µM | 53.1 µM | – | 37.4 µM | 33.1 µM | 53 µM | 38.2 µM | 35.2 µM | – | 34.9 µM | – | – | – |
| CC(C)(C)C(=O)/C=C(\OB(F)F)C(C)(C)C | > 100 µM | > 100 µM | > 100 µM | > 100 µM | > 100 µM | > 100 µM | > 100 µM | > 100 µM | > 100 µM | > 100 µM | > 100 µM | > 100 µM | > 100 µM | > 100 µM | > 100 µM | – | – | – | – | – |
